Drawing on ChEMBL document CHEMBL1146079, “Inhibition of human acetyl- and butyrylcholinesterase by novel carbamates of (-)- and (+)-tetrahydrofurobenzofuran and methanobenzodioxepine” (J Med Chem, 2006), this text covers IC50 for 20 compounds.

In one assay the target is Cholinesterase (Homo sapiens, UniProt P06276).
Another assay concerns the target Acetylcholinesterase (Homo sapiens, UniProt P22303).

The structures appear in SMILES notation.

Cholinesterase, sequence (P06276 whole entry): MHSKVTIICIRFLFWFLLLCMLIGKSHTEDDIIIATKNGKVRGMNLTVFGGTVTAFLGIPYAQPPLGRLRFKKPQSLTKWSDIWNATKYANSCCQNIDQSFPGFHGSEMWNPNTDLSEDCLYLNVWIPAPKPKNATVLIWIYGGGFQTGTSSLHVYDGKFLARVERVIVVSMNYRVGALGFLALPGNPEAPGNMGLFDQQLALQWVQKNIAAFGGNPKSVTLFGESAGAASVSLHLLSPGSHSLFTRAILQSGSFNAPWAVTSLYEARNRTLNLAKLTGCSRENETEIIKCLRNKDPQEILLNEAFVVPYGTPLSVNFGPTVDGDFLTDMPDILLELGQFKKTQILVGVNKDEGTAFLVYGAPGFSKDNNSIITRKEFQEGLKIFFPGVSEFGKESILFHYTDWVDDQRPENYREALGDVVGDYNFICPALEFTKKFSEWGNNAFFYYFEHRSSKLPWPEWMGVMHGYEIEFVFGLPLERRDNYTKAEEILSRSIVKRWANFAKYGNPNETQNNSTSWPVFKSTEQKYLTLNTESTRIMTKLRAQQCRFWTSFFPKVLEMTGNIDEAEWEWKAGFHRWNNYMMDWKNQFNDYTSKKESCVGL
Acetylcholinesterase, sequence (P22303 whole entry): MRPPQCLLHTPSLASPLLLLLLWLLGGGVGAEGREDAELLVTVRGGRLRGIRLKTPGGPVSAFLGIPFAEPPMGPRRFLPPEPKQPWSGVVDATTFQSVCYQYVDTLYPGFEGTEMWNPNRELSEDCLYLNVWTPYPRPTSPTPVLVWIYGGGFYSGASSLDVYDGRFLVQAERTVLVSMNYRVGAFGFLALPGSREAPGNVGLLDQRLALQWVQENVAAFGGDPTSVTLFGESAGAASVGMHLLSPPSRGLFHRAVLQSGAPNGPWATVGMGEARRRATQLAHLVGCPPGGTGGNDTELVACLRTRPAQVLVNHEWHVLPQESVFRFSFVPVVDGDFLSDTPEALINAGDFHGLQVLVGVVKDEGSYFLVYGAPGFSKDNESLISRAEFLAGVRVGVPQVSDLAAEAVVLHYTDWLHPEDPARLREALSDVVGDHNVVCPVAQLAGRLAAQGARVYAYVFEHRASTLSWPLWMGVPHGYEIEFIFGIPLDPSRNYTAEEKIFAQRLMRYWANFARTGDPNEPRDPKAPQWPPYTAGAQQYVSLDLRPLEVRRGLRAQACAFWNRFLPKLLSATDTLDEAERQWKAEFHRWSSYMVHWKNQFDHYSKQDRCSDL
Description for Acetylcholinesterase: Anticholinesterase activity against human erythrocyte AChE

Compound `CC(C)c1ccc(NC(=O)Oc2ccc3c(c2)[C@@]2(C)CO[C@H](C2)O3)cc1` came in with an IC50 on Cholinesterase of 0.015 µM.
As to `CCNC(=O)Oc1ccc2c(c1)[C@]1(C)CCO[C@@H]1O2`, the IC50 on Cholinesterase came out at 0.003 µM; on Acetylcholinesterase, 0.1 µM.
`CNC(=O)Oc1ccc2c(c1)[C@]1(C)CCO[C@@H]1N2C` displayed an IC50 on Cholinesterase of 0.004 µM.
Consider `CC(C)c1ccc(NC(=O)Oc2ccc3c(c2)[C@]2(C)CO[C@@H](C2)O3)cc1`, for which the IC50 against Cholinesterase was determined as 0.054 µM; at Acetylcholinesterase, 3.43 µM.
For `Cc1ccccc1NC(=O)Oc1ccc2c(c1)[C@@]1(C)CCO[C@H]1N2C` the same measures were 5.1 µM and 0.142 µM.
Taken in the same sequence, the figures for `CCNC(=O)Oc1ccc2c(c1)[C@]1(C)CCN(C)[C@@H]1N2C` were 0.004 µM and 0.094 µM.
`CC(C)c1ccc(NC(=O)Oc2ccc3c(c2)[C@@]2(C)CCO[C@H]2N3C)cc1` showed an IC50 against Cholinesterase of 0.023 µM.
With `CNC(=O)Oc1ccc2c(c1)[C@@]1(C)CCO[C@H]1N2C`, the IC50 against Cholinesterase and against Acetylcholinesterase was 0.056 µM throughout.
Take `CCNC(=O)Oc1ccc2c(c1)[C@]1(C)CO[C@@H](C1)O2`: the half-inhibitory concentration (IC50) against Cholinesterase was found to be 0.12 µM; against Acetylcholinesterase it was 2.42 µM.
Take `Cc1ccccc1NC(=O)Oc1ccc2c(c1)[C@@]1(C)CCO[C@H]1O2`: the midpoint of inhibition at Cholinesterase, the IC50, lay at 36.4 µM.
On Cholinesterase, `CC(C)c1ccc(NC(=O)Oc2ccc3c(c2)[C@@]2(C)CCO[C@H]2O3)cc1` returned an IC50 of 0.04 µM.
The same measure, in the same setting: with `CC(C)c1ccc(NC(=O)Oc2ccc3c(c2)[C@]2(C)CCO[C@@H]2O3)cc1` the figure was 0.013 µM.
The compound `Cc1ccccc1NC(=O)Oc1ccc2c(c1)[C@]1(C)CO[C@@H](C1)O2` showed a half-maximal inhibitory concentration (IC50) on Acetylcholinesterase of 0.097 µM.
In the case of `CCNC(=O)Oc1ccc2c(c1)[C@@]1(C)CCO[C@H]1O2`, the results for the IC50 on Cholinesterase and at Acetylcholinesterase were 0.028 µM and 0.486 µM, respectively.
Taken in the same sequence, the figures for `Cc1ccccc1NC(=O)Oc1ccc2c(c1)[C@@]1(C)CO[C@H](C1)O2` were 52 µM and 0.038 µM.
Taken in the same sequence, the figures for `CCNC(=O)Oc1ccc2c(c1)[C@@]1(C)CO[C@H](C1)O2` were 0.023 µM and 0.61 µM.
For `Cc1ccccc1NC(=O)Oc1ccc2c(c1)[C@@]1(C)CCN(C)[C@H]1N2C`, the IC50 on Acetylcholinesterase is 5.51 µM. This counts as single-digit micromolar.
Regarding `CCNC(=O)Oc1ccc2c(c1)[C@]1(C)CCO[C@@H]1N2C`, the figures for the concentration for half-maximal inhibition (IC50) at Cholinesterase and at Acetylcholinesterase were 0.002 µM and 0.082 µM, respectively.
`CC(C)c1ccc(NC(=O)Oc2ccc3c(c2)[C@]2(C)CCO[C@@H]2N3C)cc1`: the results for the IC50 on Cholinesterase and against Acetylcholinesterase were 0.017 µM and 3.86 µM, respectively.
`Cc1ccccc1NC(=O)Oc1ccc2c(c1)[C@]1(C)CCO[C@@H]1O2` registered an IC50 against Cholinesterase of 11.4 µM.

In general, IC50 refers to the concentration at which inhibition is half-maximal.
